The results in this text go back to the supplement of paper PMC11061612.

Assay in all cases: Bliss excess, mean over the matrix (fraction); higher = more synergy
One assay relates to A673 (Ewing's Sarcoma). The method, boiled down:
(§1)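 Cell lines grown in DMEM/F12 or RPMI with 10% FBS were plated in 1536-well plates and held 24 hours at 37°C, 5% CO2 before 72 hours of exposure to two-drug dose matrices, with DMSO typically at 0.2%. CellTiter-Glo 2.0 luminescence gave viability, which was converted to inhibition. Vehicle wells were set to 0 and blank wells to 1. Combination Emax is the second-highest inhibition in the matrix, and Bliss excess is the observed combination effect minus the expected EA + EB − EA·EB, where EA and EB are the single-agent effects.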

Assay [1] has as its system ALL-PO (B-Lymphoblastic Leukemia). Summed up: as §1
Assay [2] concerns BFTC-909 (Kidney Carcinoma). Summed up: as §1
Another assay has as its system BPH-1 (Non-Cancerous). The method, boiled down: as §1
Assay [3] concerns ESS-1 (Other Solid Carcinomas). The method, boiled down:
as §1

The test system of assay [4] is HH (T-Cell Non-Hodgkin's Lymphoma). Summed up: as §1
Assay [5] relates to HuCCT1 (Biliary Tract Carcinoma). Summed up:
as §1

The subject of assay [6] is KMRC-20 (Kidney Carcinoma). The method, boiled down:
as §1

Assay [7] concerns KYAE-1 (Esophageal Adenocarcinoma). Summed up: as §1
Assay [8] deals with LCLC-97TM1 (Non-Small Cell Lung Carcinoma). The method, boiled down:
as §1

The test system of a further assay is LOXIMVI (Melanoma). Summed up: as §1
A further assay relates to MPP-89 (Mesothelioma). Summed up: as §1
A further assay deals with NCI-H2052 (Mesothelioma). Summed up:
as §1

Assay [9] concerns NUGC-4 (Gastric Carcinoma). The method, boiled down: as §1
In assay [10] the test system is OV-56 (Ovarian Carcinoma). Summed up: as §1
Assay [11] concerns OVCAR-5 (Ovarian Carcinoma). Summed up: as §1
Assay [12] has as its system SAS (Oral Cavity Carcinoma). Summed up:
as §1

The subject of assay [13] is SW1573 (Lung Adenocarcinoma). Summed up: as §1
Assay [14] concerns SW1710 (Bladder Carcinoma). The method, boiled down: as §1
Assay [15] relates to WSU-NHL (B-Cell Non-Hodgkin's Lymphoma). Summed up:
as §1

On to `CC(=O)c1c(C)c2cnc(Nc3ccc(N4CCNCC4)cn3)nc2n(C2CCCC2)c1=O` [Palbociclib] + CC1(C)CCC(CN2CCN(c3ccc(C(=O)NS(=O)(=O)c4ccc(NCC5CCOCC5)c([N+](=O)[O-])c4)c(Oc4cnc5[nH]ccc5c4)c3)CC2)=C(c2ccc(Cl)cc2)C1 [Venetoclax] (first compound max 10 µM, 7x7, partner max 1 µM), for which the Bliss excess is -0.0426 with A673 (Ewing's Sarcoma); 0.169 in [1]; 0.0244 in [2]; -0.0556 in the assay with BPH-1 (Non-Cancerous); -0.0303 in assay [3]; -0.0384 in [4]. For the same compound, the Bliss excess was -0.0611 in assay [5]; -0.03 in [6]; -0.023 in assay [7]; -0.0231 in assay [8]; -0.0045 with LOXIMVI (Melanoma); -0.0484 in the assay on MPP-89 (Mesothelioma). Besides, the Bliss excess in the assay on NCI-H2052 (Mesothelioma) is -0.0432; in assay [9] it was -0.0246; in [10] it was -0.0448; in [11], -0.0018; in assay [12], 0.014; in assay [13], -0.0108. Besides, the Bliss excess in assay [14] was 0.0152; in assay [15], -0.0137.
For `COc1nnc2ccc(N3CCC(c4ccc(OCCN5CCN(C)C(=O)[C@H]5C)cc4)CC3)nn12` [AZD5153] + Cc1c2c(nn1C)CSCc1cc(n(C)n1)CSc1cc(c3ccccc3c1)OCCCc1c(C(=O)O)n(C)c3c-2c(Cl)ccc13 [AZD5991] (first compound max 1 µM, 7x7, partner max 1 µM), the Bliss excess is 0.0041 in the assay with A673 (Ewing's Sarcoma); 0.0091 in assay [1]; -0.0034 in assay [2]; -0.0093 in the assay with BPH-1 (Non-Cancerous); 0.0032 in assay [3]; 0.0776 in assay [4]. Moreover, the Bliss excess in assay [5] was -0.0543; in assay [6], -0.0135; in [7] it was -0.0291; in assay [8] it was -0.017; with LOXIMVI (Melanoma), 0.0393; in the assay with MPP-89 (Mesothelioma), -0.0399. Besides, the Bliss excess is -0.018 in the assay on NCI-H2052 (Mesothelioma); 0.0081 in [9]; -0.0093 in assay [10]; -0.043 in [11]; -0.0191 in assay [12]; -0.0366 in assay [13]. In addition, the Bliss excess was -0.0389 in [14] and 0.01 in [15].
On to `Cc1c2c(nn1C)CSCc1cc(n(C)n1)CSc1cc(c3ccccc3c1)OCCCc1c(C(=O)O)n(C)c3c-2c(Cl)ccc13` [AZD5991] + Cn1cnc2c(F)c(Nc3ccc(Br)cc3Cl)c(C(=O)NOCCO)cc21 [Selumetinib] (first compound max 1 µM, 7x7, partner max 3 µM), for which the Bliss excess in the assay with A673 (Ewing's Sarcoma) is 0.12; in [1], 0.0056; in assay [2] it was 0.0607; in the assay with BPH-1 (Non-Cancerous), 0.0216; in assay [3] it was 0.0083; in assay [4], -0.0664. Also, the Bliss excess is 0.0339 in [5]; 0.0054 in [6]; -0.0155 in assay [7]; 0.0506 in assay [8]; 0.0256 in the assay with LOXIMVI (Melanoma); -0.0188 in the assay on MPP-89 (Mesothelioma). Besides, the Bliss excess in the assay with NCI-H2052 (Mesothelioma) is 0.0301; in assay [9], 0.0356; in assay [10] it was 0.0034; in assay [11] it was -0.0349; in [12], 0.0248; in assay [13], -0.0427. Besides, the Bliss excess in assay [14] is -0.0214; in [15] it was -0.0489.
Regarding `COc1nnc2ccc(N3CCC(c4ccc(OCCN5CCN(C)C(=O)[C@H]5C)cc4)CC3)nn12` [AZD5153] + CC1(C)CCC(CN2CCN(c3ccc(C(=O)NS(=O)(=O)c4ccc(NCC5CCOCC5)c([N+](=O)[O-])c4)c(Oc4cnc5[nH]ccc5c4)c3)CC2)=C(c2ccc(Cl)cc2)C1 [Venetoclax] (first compound max 1 µM, 7x7, partner max 1 µM), the Bliss excess is -0.0706 in the assay with A673 (Ewing's Sarcoma); 0.058 in assay [1]; -0.105 in assay [2]; -0.0574 in the assay on BPH-1 (Non-Cancerous); -0.017 in assay [3]; -0.065 in [4]. Also, the Bliss excess in [5] is -0.0517; in assay [6], -0.0096; in assay [7] it was -0.0171; in [8], -0.0277; in the assay on LOXIMVI (Melanoma) it was -0.0687; in the assay with MPP-89 (Mesothelioma) it was -0.0166. The Bliss excess is -0.0748 with NCI-H2052 (Mesothelioma); -0.0455 in [9]; -0.062 in assay [10]; -0.052 in assay [11]; -0.0325 in assay [12]; -0.118 in assay [13]. Further, the Bliss excess was -0.0739 in assay [14] and 0.0355 in assay [15].
Consider `CN(CCO)CC[C@H](CSc1ccccc1)Nc1ccc(S(=O)(=O)NC(=O)c2ccc(N3CCC([C@@H](O)c4ccccc4-c4ccc(Cl)cc4)CC3)cc2)cc1S(=O)(=O)C(F)(F)F` [AZD4320] + C1CN(CCC1(C(=O)N[C@@H](CCO)C2=CC=C(C=C2)Cl)N)C3=NC=NC4=C3C=CN4 [Capivasertib] (first compound max 1 µM, 7x7, partner max 3 µM), for which the Bliss excess in the assay on A673 (Ewing's Sarcoma) was 0.0099; in [1], 0.0177; in [2], -0.0955; in the assay on BPH-1 (Non-Cancerous), -0.0496; in [3], 0.0028; in [4], 0.0193. Besides, the Bliss excess in assay [5] is -0.0536; in assay [6] it was -0.0546; in [7], -0.031; in assay [8], -0.0048; in the assay with LOXIMVI (Melanoma), -0.0189; with MPP-89 (Mesothelioma), -0.0234. Moreover, the Bliss excess is -0.0743 in the assay with NCI-H2052 (Mesothelioma); -0.0706 in assay [9]; -0.0243 in assay [10]; -0.0487 in assay [11]; -0.0369 in assay [12]; -0.0614 in [13]. In addition, the Bliss excess in [14] was -0.034; in assay [15], -0.0413.
Regarding `CC1(C)CCC(CN2CCN(c3ccc(C(=O)NS(=O)(=O)c4ccc(NCC5CCOCC5)c([N+](=O)[O-])c4)c(Oc4cnc5[nH]ccc5c4)c3)CC2)=C(c2ccc(Cl)cc2)C1` [Venetoclax] + Cn1cnc2c(F)c(Nc3ccc(Br)cc3Cl)c(C(=O)NOCCO)cc21 [Selumetinib] (first compound max 1 µM, 7x7, partner max 3 µM), the Bliss excess with A673 (Ewing's Sarcoma) is 0.0048; in [1] it was 0.0801; in [2] it was -0.0315; with BPH-1 (Non-Cancerous), 0.0055; in assay [3], -0.0393; in [4], -0.0387. Further, the Bliss excess in [5] was -0.0128; in assay [6], 0.0022; in assay [7] it was -0.028; in assay [8], -0.0023; in the assay with LOXIMVI (Melanoma), -0.0228; in the assay with MPP-89 (Mesothelioma) it was -0.0235. For the same compound, the Bliss excess with NCI-H2052 (Mesothelioma) was -0.0126; in assay [9], -0.0467; in assay [10], -0.0188; in assay [11] it was -0.069; in [12] it was -0.0533; in assay [13], -0.0621. The Bliss excess in assay [14] is -0.0134; in assay [15], -0.131.
For the compound `COc1cccc(OCCCN)c1-c1cc(Nc2cnc(C#N)cn2)n[nH]1` [Prexasertib] + Cc1cc2ncnn2cc1Nc1ncc2c(n1)n(C1CCOCC1)c(=O)n2C [AZD7648] (first compound max 1 µM, 7x7, partner max 10 µM), the Bliss excess with A673 (Ewing's Sarcoma) was -0.0112; in [1], 0.0031; in assay [2], 0.0182; in the assay with BPH-1 (Non-Cancerous) it was 0.0161; in [3], -0.0296; in assay [4] it was -0.021. The Bliss excess is -0.0259 in assay [5]; -0.0474 in [6]; 0.0382 in [7]; -0.0411 in [8]; 0.0017 with LOXIMVI (Melanoma); -0.0104 in the assay on MPP-89 (Mesothelioma). Moreover, the Bliss excess was -0.0349 in the assay with NCI-H2052 (Mesothelioma); 0.0137 in assay [9]; -0.0467 in assay [10]; -0.0016 in assay [11]; -0.0247 in assay [12]; -0.0225 in assay [13]. In addition, the figures for the Bliss excess in [14] and in assay [15] were -0.045 and -0.0355, respectively.
